Structures can show the parent of a compound that is named as a salt.
Columns and labels:
[1] = molecular target: hERG potassium ion channels (Homo sapiens (Human), UniProt Q12809); assay: Experiment 4: hERG potassium ion channel inhibition, automated patch clamp (Qpatch), CHO-hERG cells; assay type: cell-based; conditions: highest test concentration 40 μM
Procedure: Experiment 4: hERG Potassium Ion Channel Inhibition Assay
Experimental purpose: To test the effects of the test examples on hERG potassium ion channels using an automated patch clamp method.
4.1.1 CHO-hERG cells were cultured in a 175 cm^2 culture flask. When the cell density grew from 60% to 80%, the culture medium was removed. The cells were washed once with 7 mL of PBS (Phosphate Buffered Saline), and then 3 mL of Detachin cell dissociation reagent was added thereto for digestion.
4.1.2 After the digestion was completed, 7 mL of culture medium was added thereto for neutralization, then the mixture was centrifuged, the supernatant was aspirated, and then 5 mL of culture medium was added thereto for resuspension to ensure a cell density of 2×10^6/mL to 5×10^6/ML.
The single-cell high-resistance sealing and whole-cell modeling formation processes were all automatically completed by the Qpatch instrument of the Shanghai Institute of Materia Medica, Chinese Academy of Sciences. After obtaining the whole-cell recording modeling, the cells were clamped at −80 mV, and before a 5-second +40 mV depolarizing stimulus was given, a 50-millisecond −50 mV prepulse was first given, then the voltage was repolarized to −50 mV and holden for 5 seconds, and finally returned to −80 mV. This voltage stimulus was applied every 15 seconds, recorded for 2 minutes, and then the extracellular fluid was recorded for 5 minutes, and then the administration process was initiated, with compound concentrations starting at the lowest test concentration. The voltage stimulus was given for 2.5 minutes for each test concentration, and after all concentrations had been continuously given, 3 μM the positive control compound, Cisapride, was given. At least 3 cells were tested per concentration (n≥3).
4.4.1 The compound stock solution was diluted with DMSO, and 20 μL of DMSO solution was added with 10 μL of the compound stock solution, and serially diluted 3-fold to 6 DMSO concentrations.
4.4.2 4 μL of 6 DMSO concentrations of compounds were taken respectively and added to 396 μL of extracellular fluid, and the mixture was diluted 100-fold to 6 intermediate concentrations, then 80 μL of 6 intermediate concentrations of compounds was taken and added to 320 μL of extracellular fluid, and the mixture was diluted 5-fold to the final test concentration.
4.4.3 The highest test concentration was 40 μM, and the concentrations were respectively 40, 13.3, 4.4, 1.48, 0.494, and 0.165 μM for a total of six concentrations.
4.4.5 The preparation of the compound was completed by the Bravo instrument throughout the dilution process.
Experimental data were analyzed by GraphPad Prism 5.0 software.

NCI-H1417 cells = assay: Experiment 2: inhibition of NCI-H1417 cell proliferation (CellTiter-Glo, 10 days); assay type: cell-based; conditions: Homo sapiens, 240 h, 10 days incubation
Procedure: Experiment 2: Evaluation of Inhibitory Activity on NCI-H1417 Cell Proliferation
Experimental purpose: To test the inhibitory activity of test compounds on NCI-H1417 cell proliferation.
Experimental materials: RPMI 1640 medium, fetal bovine serum, Promega CellTiter-Glo reagent. The NCI-H1417 cell line was purchased from ATCC. Envision multilabel plate reader (PerkinElmer).
Experimental method: The compounds were dissolved to 10 mM and 5-fold diluted with DMSO in the compound plates, starting with a concentration of 2 mM. 3-fold serial dilution was performed with Bravo to 10 concentrations. Then 250 nL of the compound solution was transferred to the upper and lower double duplicate wells of a blank 384 cell plate with Echo. To each well containing the transferred 250 nL of DMSO/compound was added a cell suspension of 1000 cells/50 μL per well, and the compound was diluted 200-fold, i.e., resulting in an initial working concentration of 10 μM. The cell plate was incubated in a carbon dioxide incubator for 10 days. To the cell plate was added 25 μL of Promega CellTiter-Glo reagent per well and the mixture was shaken for 10 minutes at room temperature to stabilize the luminescence signal. Readings were performed on a PerkinElmer Envision multilabel plate reader.
Data analysis: Raw data were converted into inhibition rate using the formula: (Max−Ratio)/(Max−Min)*100%. The IC50 values could then be derived from four-parameter curve fitting. (derived from 205 mode in XLFIT5, iDBS)
The compounds were tested for inhibitory activity of compounds on NCI-H1417 cell proliferation, and the results are shown in Table 3.

human LSD1 = human LSD1 (Homo sapiens (Human), UniProt O60341); assay: Experiment 1B: in vitro LSD1 enzyme activity, enzyme-coupled fluorescence (HRP/Amplex Red), H3(1-21)K4me2 peptide 10 μM (Reaction Biology); assay type: biochemical; conditions: histone H3(1-21)K4me2 peptide 10 μM
Procedure: Experiment 1B: Evaluation of Enzyme Activity
Testing unit: Reaction Biology Corp., USA.
The purpose of the assay was to test the in vitro inhibitory activity of the compounds against LSD1. The enzyme used in the assay was human LSD1, and the standard substrate was histone H3(1-21)K4me2 peptide (10 μM). The activity of the compounds was determined by the enzyme-coupling fluorescent method by the combined detection of H2O2 generated after the reaction of LSD1 by horseradish peroxidase (HRP) and the fluorescent reagent Amplex Red. Starting from 10 μM, the compounds were 3-fold diluted to detect the IC50 values of the compounds at 10 concentrations. The enzyme and substrate were incubated for 30 minutes before the compound was added to the substrate to start the reaction. Fluorescence detector: EnVision, excitation wavelength: Ex/Em=535/590 nM.

[2] = Experiment 3: pharmacokinetic evaluation in CD-1 mice (IV and oral); assay type: in vivo; conditions: mouse, plasma, male CD-1 mice
Procedure: Experiment 3: Pharmacokinetic Evaluation of Compounds
Experimental purpose: To test the pharmacokinetics of compounds in CD-1 mice in vivo
CD-1 mice (male/female, 7 to 9 weeks old, Shanghai SLAC)
The pharmacokinetic characteristics of the compounds in rodents after intravenous injection and oral administration were tested according to the standard protocol. In the experiment, the candidate compound was formulated into clear solutions, and a single intravenous injection and oral administration were given to mice. The vehicle for intravenous injection and oral administration was a mixed vehicle composed of 10% dimethyl sulfoxide and 90% hydroxypropyl β-cyclodextrin with a content of 10%. In this project, four male/female CD-1 mice were used. Two mice were injected intravenously at a dose of 1 mg/kg, and plasma samples were collected at 0.083, 0.25, 0.5, 1, 2, 4, 8, and 24 hours after administration; the other two were administered orally by gavage at a dose of 2 mg/kg, and plasma samples were collected at 0.25, 0.5, 1, 2, 4, 8, and 24 hours after administration. The samples were centrifuged at 3200 g for 10 minutes at 4° C., and plasma samples were obtained by separating the supernatant. A methanol solution containing internal standard with 20 times the volume of the sample was added thereto to precipitate the protein, and the mixture was centrifuged at 12000 g for 15 minutes at 4° C. 50 μL of the supernatant was taken and transferred to a 96-well plate and centrifuged again. The supernatant was taken for sampling. The plasma concentration was quantitatively analyzed using LC-MS/MS analysis method, and pharmacokinetic parameters, such as peak concentration (Cmax), clearance rate (CL), half-life (T1/2), volume of distribution at steady state (Vdss), area under drug-time curve (AUC0-last), bioavailability (F).

Sequence of hERG potassium ion channels (Q12809 whole entry): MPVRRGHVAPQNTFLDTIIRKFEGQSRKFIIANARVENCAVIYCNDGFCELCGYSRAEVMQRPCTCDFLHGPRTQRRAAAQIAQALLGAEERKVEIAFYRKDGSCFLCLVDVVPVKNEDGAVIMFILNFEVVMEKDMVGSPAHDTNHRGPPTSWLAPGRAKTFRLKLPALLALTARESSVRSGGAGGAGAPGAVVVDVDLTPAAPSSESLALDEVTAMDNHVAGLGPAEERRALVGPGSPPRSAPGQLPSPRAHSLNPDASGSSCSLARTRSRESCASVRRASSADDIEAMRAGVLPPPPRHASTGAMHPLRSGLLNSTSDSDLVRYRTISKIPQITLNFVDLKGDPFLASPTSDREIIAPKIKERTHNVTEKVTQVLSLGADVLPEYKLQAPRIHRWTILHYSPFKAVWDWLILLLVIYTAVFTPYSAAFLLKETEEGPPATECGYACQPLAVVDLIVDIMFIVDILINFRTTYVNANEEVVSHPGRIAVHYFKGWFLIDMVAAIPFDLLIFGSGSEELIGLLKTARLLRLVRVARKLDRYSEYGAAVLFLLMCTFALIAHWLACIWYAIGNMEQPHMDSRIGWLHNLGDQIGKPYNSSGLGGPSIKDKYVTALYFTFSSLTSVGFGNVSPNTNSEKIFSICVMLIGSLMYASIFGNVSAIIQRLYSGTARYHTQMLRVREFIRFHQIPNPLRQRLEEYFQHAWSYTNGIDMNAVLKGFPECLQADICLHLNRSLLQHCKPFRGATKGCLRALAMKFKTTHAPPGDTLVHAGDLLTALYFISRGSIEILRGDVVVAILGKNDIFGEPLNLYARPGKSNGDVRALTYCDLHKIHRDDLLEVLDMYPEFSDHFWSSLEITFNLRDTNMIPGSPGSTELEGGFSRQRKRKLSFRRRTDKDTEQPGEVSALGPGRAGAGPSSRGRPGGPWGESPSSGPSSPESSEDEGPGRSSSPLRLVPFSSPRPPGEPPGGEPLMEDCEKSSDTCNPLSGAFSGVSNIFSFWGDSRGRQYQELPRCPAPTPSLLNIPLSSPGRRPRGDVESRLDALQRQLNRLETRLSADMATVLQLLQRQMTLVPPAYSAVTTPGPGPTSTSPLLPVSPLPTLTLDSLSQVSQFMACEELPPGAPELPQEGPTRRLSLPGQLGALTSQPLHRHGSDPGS

Row | Compound | IC50 [1] | IC50 (NCI-H1417 cells) | IC50 (human LSD1) | clearance ([2]; IV 1 mg/kg, read-out: Clearance rate CL) | half-life ([2]; IV 1 mg/kg, read-out: Half life T1/2 (IV, h) (converted)) | Vd ([2]; IV 1 mg/kg, read-out: Volume of distribution at steady state Vdss) | bioavailability ([2]; PO 2 mg/kg vs IV 1 mg/kg, read-out: Bioavailability F (%)) | AUC(0-t) ([2]; PO 2 mg/kg, read-out: Area under drug-time curve AUC0-last PO) | Cmax ([2]; single dose, oral 2 mg/kg, read-out: Peak concentration Cmax)
1 | CC(C)(O)CN1Cc2cc(-c3sc(C(=O)N4CCC[C@@H](N)C4)cc3-c3ccc(C#N)c(F)c3)ccc2C1=O [Compound 59] | > 40 µM | 0.0132 µM | 0.0431 µM |  |  |  |  |  | 
2 | CC(C)(O)Cn1nnc2cc(-c3sc(C(=O)N4C5CCC4C(N)C5)cc3-c3ccc(C#N)c(F)c3)ccc21 (stereo not drawn) [Hydrochloride of compound 16] | > 40 µM | 0.00017 µM | 0.00751 µM |  |  |  |  |  | 
3 | N#Cc1ccc(-c2cc(C(=O)N3CCC[C@@H](N)C3)sc2-c2ccc3c(c2)CNC3=O)cc1F [Hydrochloride of compound 46] | > 40 µM | 0.0194 µM | 0.0813 µM |  |  |  |  |  | 
4 | N#Cc1ccc(-c2cc(C(=O)N3CCC[C@@H](N)C3)sc2-c2ccc(OCC(O)CO)c(F)c2)cc1F (stereo partly drawn) [Hydrochloride of compound 54] | > 40 µM | 0.00511 µM | 0.0499 µM |  |  |  |  |  | 
5 | Cn1cc2cc(-c3sc(C(=O)N4CCC[C@@H](N)C4)cc3-c3ccc(C#N)c(F)c3)cnc2n1 [Hydrochloride of compound 56] | > 40 µM | 0.0568 µM | 0.109 µM |  |  |  |  |  | 
6 | N#Cc1ccc(-c2cc(C(=O)N3CCC[C@@H](N)C3)sc2-c2ccc3c(cnn3CC(O)CO)c2)cc1F (stereo partly drawn) [Hydrochloride of compound 62] | > 40 µM | 0.0112 µM | 0.0301 µM |  |  |  |  |  | 
7 | N#Cc1ccc(-c2cc(C(=O)N3CCC[C@@H](N)C3)sc2-c2ccc3nn(C4CC(O)C4)cc3c2)cc1F (stereo partly drawn) [Hydrochloride of compound 73] | > 40 µM | 0.0145 µM | 0.0118 µM |  |  |  |  |  | 
8 | N#Cc1ccc(-c2cc(C(=O)N3CCC[C@@H](N)C3)sc2-c2ccc3c(c2)nnn3CC2(O)CCC2)cc1F [Hydrochloride of compound 82] | 14.9 µM | 0.00173 µM | 0.00301 µM |  |  |  |  |  | 
9 | CC1(O)CC(n2cc3cc(-c4sc(C(=O)N5CCC[C@@H](N)C5)cc4-c4ccc(C#N)c(F)c4)ccc3n2)C1 (stereo partly drawn) [Hydrochloride of compound 86] | 21 µM | 0.0103 µM | 0.016 µM |  |  |  |  |  | 
10 | N#Cc1ccc(-c2cc(C(=O)N3CCC[C@@H](N)C3)sc2-c2ccc3nn([C@H]4COCC[C@@H]4O)cc3c2)cc1F [Hydrochloride of compound 88] | 21.9 µM | 0.0394 µM | 0.0876 µM |  |  |  |  |  | 
11 | N#Cc1ccc(-c2cc(C(=O)N3CCC[C@@H](N)C3)sc2-c2ccc3nn(CC4(O)CC4)cc3c2)cc1F [Hydrochloride of compound 89] | 22.7 µM | 0.00161 µM | 0.0152 µM |  |  |  |  |  | 
12 | N#Cc1ccc(-c2cc(C(=O)N3CCC[C@@H](N)C3)sc2-c2ccc3c(c2)nnn3[C@H]2COCC[C@@H]2O)cc1F [Hydrochloride of compound 90] | > 40 µM | 0.0376 µM | 0.0373 µM |  |  |  |  |  | 
13 | CC(C)(O)Cn1nnc2cc(-c3sc(C(=O)N4CCC[C@@H](N)C4)cc3-c3ccc(C#N)c(F)c3)c(F)c(F)c21 [Hydrochloride of compound 91] | > 40 µM | 0.00083 µM | 0.013 µM |  |  |  |  |  | 
14 | N#Cc1ccc(-c2cc(C(=O)N3CCC[C@@H](N)C3)sc2-c2cc3cn([C@H]4COCC[C@@H]4O)nc3cc2F)cc1F [Hydrochloride of compound 94] | > 40 µM | 0.0328 µM | 0.0984 µM |  |  |  |  |  | 
15 | CC(C)(CO)n1nnc2cc(-c3sc(C(=O)N4CCC[C@@H](N)C4)cc3-c3ccc(C#N)c(F)c3)c(F)c(F)c21 [Hydrochloride of compound 99] | 27 µM | 0.00426 µM | 0.0174 µM | 2.52 L/h/kg | 2.48 h | 7.23 L/kg | 47.7% | 625 nM·h | 0.145 µM
16 | CC(C)(O)Cn1nnc2cc(-c3sc(C(=O)N4CCCNCC4)cc3-c3ccc(C#N)c(F)c3)c(F)c(F)c21 [Hydrochloride of compound 111] | 21.5 µM | 0.00212 µM | 0.0176 µM |  |  |  |  |  | 
